Values of other authors as cited in patent publication US20230210769A1, “METHODS OF TREATMENT USING NICLOSAMIDE” (priority 2020, published 2023).

Tests used:
[1] = tested on: SARS-CoV-2 (a.k.a. 2019-nCoV)
[2] = tested on: SARS-CoV, influenza virus, MERS-CoV, ZIKV, JEV, HCV, EBOV, HRVs, CHIKV, HAdV, EBV

O=C(Nc1ccc([N+](=O)[O-])cc1Cl)c1cc(Cl)ccc1O [niclosamide, 5-chloro-N-(2-chloro-4-nitrophenyl)-2-hydroxybenzamide]
anti-viral effects against SARS-CoV-2 [1]: anti-viral effects
anti-viral effects in vitro against various viral infections [2]: anti-viral effects in vitro
